Source: article PMC3468400, “Pharmacokinetic profiles of artesunate following multiple intravenous doses of 2, 4, and 8 mg/kg in healthy volunteers: Phase 1b study” (Malaria Journal, 2012)
Read-outs that look alike come from different tables or passages of the source.

Test: Pharmacokinetics of artesunate (AS) in plasma after multiple intravenous doses, compartmental analysis (Phase 1b)
Type: in vivo, human
Conditions: for Total AUCD1-D3: days 1-3; for half-life / AUC(0-inf) / Cmax / clearance / MRT / AUC: iv; for clearance: read-out: CL_obs; for AUC: 2-8 mg/kg iv, read-out: Mean AUC of AS, range over doses
Experimental: The study was a double blind, ascending multiple doses, alternating group, safety, tolerance, and PK study. […] When the injection was completed, the study nurse recorded tolerance of injection to include both inspection of site and subjects’ responses. Subjects were provided a light lunch at approximately 4 hours after dosing. Normal activities, excluding strenuous exercise, were permitted four hours after dosing. […] During the multiple-dose period, samples were collected immediately before morning dose on days 2 and 3 for additional trough values. All the samples were stored at −80 °C until shipment and were then shipped to a bio-analytical GLP laboratory, Midwest Research Institute (MRI), in Kansas City, MO, USA. The human use protocol numbers for the Phase 1 trial are: USUHS #G183RW; WRIAR #1128; and HSRRB #A-13276.
The analytes were extracted from human plasma with ethyl acetate. […] The reconstituted extracts were analysed on a Micromass Quattro II Mass Spectrometer in the positive ion electrospray ionization (+ESI) mode. […] This method employed a Varian Pursuit C18 column (150 x 2.0 mm, 5-μm particle size) and a gradient elution with the following mobile phases: A: 10 mM ammonium acetate in water with 1% formic acid and B: 10 mM ammonium acetate in acetonitrile with 1% formic acid, for the chromatographic separation.
Calibration standards and QC samples were analysed to evaluate the performance of the assay.
Compartmental (model-dependent) and non-compartment (model-independent) PK analysis are common methods to determine PK parameters, which are acceptable by FDA [21]. In order to compare only the clinically relevant concentrations, the compartmental PK analysis was selected for PK analysis in this study and based on a short-term (2 min) intravenous infusion in accordance with a previous PK evaluation. […] The input of the drug was assumed to follow zero-order kinetics, and elimination from the central compartment occurred with first-order kinetics. Compartmental analysis of concentration-time data for parent drug was performed using the WinNonlin software with an intravenous infusion program. The first-order method with logarithmic transformation of all drug-concentration data was used throughout.
The drug plasma concentrations at the end of an intravenous (IV) infusion (Cmax) were calculated from the corresponding model equations (IV-infusion model, WinNonlin) at the respective time points. The AUC(0-t) (where t = the time point for the last sample on the PK profile in which quantifiable drug was detected) was estimated using linear or linear/log trapezoidal calculations. […] A drug accumulation index was estimated from the AUC values on day 3 (last multiple dose administration) divided by the AUC on day 1 (first multiple dose administration).

[1] = human, plasma, 2 mg/kg, Day 1, AS 2 mg/kg iv daily for 3 days, 2 min infusion, mean (CV%), n = 6, CA
[2] = human, plasma, 2 mg/kg, Day 2, AS 2 mg/kg iv daily for 3 days, 2 min infusion, mean (CV%), n = 6, CA
[3] = human, plasma, 2 mg/kg, Day 3, AS 2 mg/kg iv daily for 3 days, 2 min infusion, mean (CV%), n = 6, CA
[4] = human, plasma, 4 mg/kg, Day 1, AS 4 mg/kg iv daily for 3 days, 2 min infusion, mean (CV%), n = 6, CA
[5] = human, plasma, 4 mg/kg, Day 2, AS 4 mg/kg iv daily for 3 days, 2 min infusion, mean (CV%), n = 6, CA
[6] = human, plasma, 4 mg/kg, Day 3, AS 4 mg/kg iv daily for 3 days, 2 min infusion, mean (CV%), n = 6, CA
[7] = human, plasma, 8 mg/kg, Day 1, AS 8 mg/kg iv daily for 3 days, 2 min infusion, mean (CV%), n = 6, CA
[8] = human, plasma, 8 mg/kg, Day 2, AS 8 mg/kg iv daily for 3 days, 2 min infusion, mean (CV%), n = 6, CA
[9] = human, plasma, 8 mg/kg, Day 3, AS 8 mg/kg iv daily for 3 days, 2 min infusion, mean (CV%), n = 6, CA

`C[C@H]1[C@H](OC(=O)CCC(=O)O)O[C@@H]2O[C@@]3(C)CC[C@H]4[C@H](C)CC[C@@H]1[C@@]24OO3` [AS, 4-(10’dihydro-artemisinin-oxymethyl) succinate] showed a Tmax (Day 1, AS 2 mg/kg iv daily for 3 days, 2 min infusion, n = 6, CA) of 2 min, a Tmax (Day 1, AS 4 mg/kg iv daily for 3 days, 2 min infusion, n = 6, CA) of 2 min and a Tmax (Day 1, AS 8 mg/kg iv daily for 3 days, 2 min infusion, n = 6, CA) of 2 min. For the same compound, the Tmax (Day 3, AS 2 mg/kg iv daily for 3 days, 2 min infusion, n = 6, CA) was 2 min, the Tmax (Day 3, AS 4 mg/kg iv daily for 3 days, 2 min infusion, n = 6, CA) was 2 min and the Tmax (Day 3, AS 8 mg/kg iv daily for 3 days, 2 min infusion, n = 6, CA) was 2 min. For the same compound, the “peak concentrations of AS, range” value (all days, 2, 4, 8 mg/kg iv doses) was 16,487-74,588 ng/ml, the “Total AUCD1-D3” value (AS 2 mg/kg iv daily for 3 days, mean (CV%), n = 6) was 4731 (40) ng·h/ml and the “Total AUCD1-D3” value (AS 4 mg/kg iv daily for 3 days, mean (CV%), n = 6) was 10787 (17) ng·h/ml. For the same compound, the “Total AUCD1-D3” value (AS 8 mg/kg iv daily for 3 days, mean (CV%), n = 6) was 18606 (45) ng·h/ml, the half-life (human, in vivo, 2 mg/kg, Day 1, AS 2 mg/kg iv daily for 3 days, 2 min infusion, mean (CV%), n = 6, CA, read-out: t1/2 elimination (converted)) was 9.6 min and the half-life (human, in vivo, 2 mg/kg, Day 2, AS 2 mg/kg iv daily for 3 days, 2 min infusion, mean (CV%), n = 6, CA, read-out: t1/2 elimination (converted)) was 11.4 min. The half-life (human, in vivo, 2 mg/kg, Day 3, AS 2 mg/kg iv daily for 3 days, 2 min infusion, mean (CV%), n = 6, CA, read-out: t1/2 elimination (converted)) was 9 min, the half-life (human, in vivo, 4 mg/kg, Day 1, AS 4 mg/kg iv daily for 3 days, 2 min infusion, mean (CV%), n = 6, CA, read-out: t1/2 elimination (converted)) was 12.6 min and the half-life (human, in vivo, 4 mg/kg, Day 2, AS 4 mg/kg iv daily for 3 days, 2 min infusion, mean (CV%), n = 6, CA, read-out: t1/2 elimination (converted)) was 13.8 min. The half-life (human, in vivo, 4 mg/kg, Day 3, AS 4 mg/kg iv daily for 3 days, 2 min infusion, mean (CV%), n = 6, CA, read-out: t1/2 elimination (converted)) was 12 min, the half-life (human, in vivo, 8 mg/kg, Day 1, AS 8 mg/kg iv daily for 3 days, 2 min infusion, mean (CV%), n = 6, CA, read-out: t1/2 elimination (converted)) was 12 min and the half-life (human, in vivo, 8 mg/kg, Day 2, AS 8 mg/kg iv daily for 3 days, 2 min infusion, mean (CV%), n = 6, CA, read-out: t1/2 elimination (converted)) was 11.4 min. It also gave a half-life (human, in vivo, 8 mg/kg, Day 3, AS 8 mg/kg iv daily for 3 days, 2 min infusion, mean (CV%), n = 6, CA, read-out: t1/2 elimination (converted)) of 12 min, an AUC(0-inf) [1] of 2050 ng·h/mL and a Cmax [1] of 28400 ng/mL. For the same compound, the clearance [1] was 21.2 mL/min/kg, the MRT (human, plasma, 2 mg/kg, Day 1, AS 2 mg/kg iv daily for 3 days, 2 min infusion, mean (CV%), n = 6, CA, read-out: MRT) was 4.8 min and the AUC(0-inf) [2] was 1410 ng·h/mL. For the same compound, the Cmax [2] was 17900 ng/mL, the clearance [2] was 29.5 mL/min/kg and the MRT (human, plasma, 2 mg/kg, Day 2, AS 2 mg/kg iv daily for 3 days, 2 min infusion, mean (CV%), n = 6, CA, read-out: MRT) was 4.8 min. The AUC(0-inf) [3] was 1270 ng·h/mL, the Cmax [3] was 16500 ng/mL and the clearance [3] was 27.9 mL/min/kg. For the same compound, the MRT (human, plasma, 2 mg/kg, Day 3, AS 2 mg/kg iv daily for 3 days, 2 min infusion, mean (CV%), n = 6, CA, read-out: MRT) was 4.2 min, the AUC(0-inf) [4] was 4640 ng·h/mL and the Cmax [4] was 40600 ng/mL. For the same compound, the clearance [4] was 19.4 mL/min/kg, the MRT (human, plasma, 4 mg/kg, Day 1, AS 4 mg/kg iv daily for 3 days, 2 min infusion, mean (CV%), n = 6, CA, read-out: MRT) was 4.8 min and the AUC(0-inf) [5] was 2630 ng·h/mL. For the same compound, the Cmax [5] was 34400 ng/mL, the clearance [5] was 27.3 mL/min/kg and the MRT (human, plasma, 4 mg/kg, Day 2, AS 4 mg/kg iv daily for 3 days, 2 min infusion, mean (CV%), n = 6, CA, read-out: MRT) was 4.8 min. It also gave an AUC(0-inf) [6] of 3520 ng·h/mL, a Cmax [6] of 51200 ng/mL and a clearance [6] of 23 mL/min/kg. The MRT (human, plasma, 4 mg/kg, Day 3, AS 4 mg/kg iv daily for 3 days, 2 min infusion, mean (CV%), n = 6, CA, read-out: MRT) was 4.8 min, the AUC(0-inf) [7] was 6020 ng·h/mL and the Cmax [7] was 63700 ng/mL. It also gave a clearance [7] of 27.9 mL/min/kg, an MRT (human, plasma, 8 mg/kg, Day 1, AS 8 mg/kg iv daily for 3 days, 2 min infusion, mean (CV%), n = 6, CA, read-out: MRT) of 6 min and an AUC(0-inf) [8] of 6670 ng·h/mL. It also gave a Cmax [8] of 74600 ng/mL, a clearance [8] of 26.7 mL/min/kg and an MRT (human, plasma, 8 mg/kg, Day 2, AS 8 mg/kg iv daily for 3 days, 2 min infusion, mean (CV%), n = 6, CA, read-out: MRT) of 4.8 min. The AUC(0-inf) [9] was 5920 ng·h/mL, the Cmax [9] was 67600 ng/mL and the clearance [9] was 28.9 mL/min/kg. It also gave an MRT (human, plasma, 8 mg/kg, Day 3, AS 8 mg/kg iv daily for 3 days, 2 min infusion, mean (CV%), n = 6, CA, read-out: MRT) of 5.4 min, an MRT (human, plasma, 8 mg/kg, range during three days of treatment, 2, 4, 8 mg/kg iv doses, read-out: mean residence time of AS, range) of 4.2 to 4.8 min and a half-life (human, plasma, 8 mg/kg, range of means over three days and 2, 4, 8 mg/kg iv doses, read-out: mean elimination half-life of AS, range) of 9 to 13.8 min. It also gave an AUC (human, plasma, day 1) of 2050 to 6020 ng·h/mL, an AUC (human, plasma, day 3) of 1270 to 5920 ng·h/mL and a Tmax (human, plasma, Day 2, AS 2 mg/kg iv daily for 3 days, 2 min infusion, n = 6, CA, read-out: Tmax (converted)) of 2 min. The Tmax (human, plasma, Day 2, AS 4 mg/kg iv daily for 3 days, 2 min infusion, n = 6, CA, read-out: Tmax (converted)) was 2 min and the Tmax (human, plasma, Day 2, AS 8 mg/kg iv daily for 3 days, 2 min infusion, n = 6, CA, read-out: Tmax (converted)) was 2 min.
